Experimental data: PubChem BioAssay (NCI)
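Interpolation was linear, between the two tested concentrations surrounding the appropriate level; five concentrations were tested over 48 hours in 96-well plates. TGI: total growth inhibition.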

Assays:
Test in all cases: NCI tumour cell line growth inhibition, 48 h
MDA-MB-435 = system: MDA-MB-435
OVCAR-3 ovarian = system: OVCAR-3 ovarian
RXF 393 renal = system: RXF 393 renal
BT-549 breast = system: BT-549 breast
HOP-92 NSCLC = system: HOP-92 NSCLC
COLO 205 colon = system: COLO 205 colon
SF-295 CNS = system: SF-295 CNS
K-562 leukemia = system: K-562 leukemia
NCI-H460 lung = system: NCI-H460 lung
CAKI-1 renal = system: CAKI-1 renal
ACHN renal = system: ACHN renal
SN12C renal = system: SN12C renal
SNB-75 CNS = system: SNB-75 CNS
DU-145 prostate = system: DU-145 prostate
TK-10 renal = system: TK-10 renal
CCRF-CEM leukemia = system: CCRF-CEM leukemia
SK-MEL-2 melanoma = system: SK-MEL-2 melanoma

Compound	TGI (MDA-MB-435)	TGI (OVCAR-3 ovarian)	TGI (RXF 393 renal)	TGI (BT-549 breast)	TGI (HOP-92 NSCLC)	TGI (COLO 205 colon)	TGI (SF-295 CNS)	TGI (K-562 leukemia)	TGI (NCI-H460 lung)	TGI (CAKI-1 renal)	TGI (ACHN renal)	TGI (SN12C renal)	TGI (SNB-75 CNS)	TGI (DU-145 prostate)	TGI (TK-10 renal)	TGI (CCRF-CEM leukemia)	TGI (SK-MEL-2 melanoma)
COc1cccc(Nc2nc(N)nc(N)c2N)c1	> 100 µM	> 100 µM	> 100 µM	> 100 µM	> 100 µM	> 100 µM	60.7 µM	> 100 µM	43.6 µM	58.3 µM	> 100 µM	37.8 µM	> 100 µM	> 100 µM	> 100 µM	52.7 µM	> 100 µM
CC(=O)c1ccc2c(c1)CC1(C2)Cc2ccc3c(c2C1=O)CCC3 (stereo unspecified)	45.3 µM	> 100 µM	97 µM	> 100 µM	41.2 µM	39.9 µM	> 100 µM	> 100 µM	> 100 µM	> 100 µM	> 100 µM	> 100 µM	91.3 µM	> 100 µM	64.2 µM	> 100 µM	35.5 µM
CCS(=O)(=O)CCn1c(=O)c2c(ncn2C)n(C)c1=O	> 100 µM	> 100 µM	> 100 µM	> 100 µM	> 100 µM	> 100 µM	> 100 µM	> 100 µM	> 100 µM	> 100 µM	> 100 µM	> 100 µM	> 100 µM	> 100 µM	> 100 µM	> 100 µM	> 100 µM
NC(=O)SCCC(N)C(=O)O (stereo unspecified)	> 100 µM	> 100 µM	> 100 µM	> 100 µM	> 100 µM	> 100 µM	> 100 µM	> 100 µM	> 100 µM	> 100 µM	> 100 µM	> 100 µM	> 100 µM	> 100 µM	> 100 µM	> 100 µM	> 100 µM
ON[C@H]1C[C@@H](n2cnc3c(NC4CC4)ncnc32)[C@H](O)[C@@H]1O	> 100 µM	> 100 µM	> 100 µM	> 100 µM	> 100 µM	> 100 µM	> 100 µM	> 100 µM	> 100 µM	> 100 µM	> 100 µM	> 100 µM	> 100 µM	> 100 µM	> 100 µM	> 100 µM	> 100 µM
COc1cc(/C=C\c2nnc(/C=C\c3ccc(O)c(OC)c3)s2)ccc1O	0.549 µM	10.7 µM	4.75 µM	11.1 µM	42.2 µM	41.4 µM	13.5 µM	> 21.2 µM	> 35.2 µM	44.2 µM	22.3 µM	> 92.8 µM	8.83 µM	8.26 µM	> 51.2 µM	14.5 µM	26 µM
COC(=O)C(COC(=O)/C=C/c1ccc(OC(C)=O)c(OC(C)=O)c1)NC(=O)/C=C/c1ccc(OC(C)=O)c(OC(C)=O)c1 (stereo unspecified)	> 100 µM	33.7 µM	> 100 µM	> 100 µM	> 100 µM	43.4 µM		> 100 µM	48.1 µM	59.4 µM	80.8 µM	45.4 µM	> 100 µM	45.2 µM		> 100 µM	36.3 µM
O=c1cc(N=Nc2ccc(Cl)c(Cl)c2)[nH]c(=O)[nH]1	17.6 µM	5.41 µM	3.17 µM	4.77 µM	3.07 µM	3.36 µM	32.5 µM	4.02 µM	7.46 µM	5.56 µM	2.98 µM	4.79 µM	22.5 µM	9.19 µM	3.18 µM	0.495 µM	12 µM
COc1nc2c(c(=O)n1C)N=C(c1ccccc1)[C@H](C(CC(=O)c1ccccc1)c1ccccc1)C(c1ccccc1)N2 (stereo partly specified)	> 100 µM	> 100 µM	> 100 µM	> 100 µM	> 100 µM	> 100 µM	> 100 µM	> 100 µM		> 100 µM	> 100 µM	> 100 µM	44.5 µM	> 100 µM		> 100 µM	> 100 µM
C[N+](C)(C)CC(=O)N/N=C(\C(=O)NC1=C(Cl)C(=O)c2ccccc2C1=O)C(C#N)c1nc(-c2ccc([N+](=O)[O-])cc2)cs1 (stereo unspecified)	3.17 µM	4.44 µM	30.2 µM	15.1 µM	29 µM	35 µM	18.9 µM	61.1 µM	25.2 µM	48.6 µM	26 µM	28.2 µM	19.9 µM	14.1 µM	74.6 µM	49.5 µM	30.9 µM
COc1ccc(C2=C(N)c3ncccc3C2=O)cc1	> 100 µM	> 100 µM	> 100 µM	> 100 µM	> 10 µM	> 100 µM	> 100 µM	> 100 µM	> 100 µM	> 100 µM	> 10 µM	> 100 µM	> 100 µM	> 100 µM	> 10 µM	> 100 µM	> 100 µM
COc1cc2c(cc1O)C1(Cc3ccc4c(c3C1=O)OCO4)N(C)CC2 (stereo unspecified)	> 100 µM	> 100 µM	> 100 µM	> 100 µM	> 100 µM	> 100 µM	> 100 µM	> 100 µM	> 100 µM	> 100 µM	> 100 µM	> 100 µM	> 100 µM	> 100 µM	> 100 µM	> 100 µM	> 100 µM
Cc1ccnc2[nH]c(-c3ccc(F)cc3)cc(=O)c12	> 44.8 µM	> 100 µM	> 100 µM	> 100 µM	> 100 µM	> 76.8 µM	> 100 µM	> 100 µM	> 60.4 µM	> 100 µM	> 100 µM	> 100 µM	> 100 µM	> 100 µM	> 100 µM	> 100 µM	> 100 µM
CCN(CC)c1ccc(/C=C/C(=O)c2cc(C(C)(C)C)c(O)c(C(C)(C)C)c2)cc1	13.3 µM	> 100 µM	39.1 µM	> 100 µM	> 100 µM	14.7 µM	7.98 µM	> 100 µM	38.2 µM	> 100 µM	> 100 µM	> 84 µM	> 100 µM	> 100 µM	97.6 µM	> 66 µM	> 71.5 µM
CC1(c2ccc(Cl)s2)CC(c2ccc(Cl)s2)=C(C#N)C(=C(C#N)C#N)N1 (stereo unspecified)	35.1 µM	28.4 µM	33.7 µM	45.7 µM	38.8 µM	61.1 µM	29.8 µM	> 100 µM	82.6 µM	34.8 µM	31.4 µM	45.7 µM	38.6 µM	30.6 µM	38.1 µM	> 100 µM	47.2 µM
CC(C)Oc1cccc(N2C(=NCCc3c[nH]c4ccccc34)Nc3ccncc3S2(=O)=O)c1	> 100 µM	> 100 µM	44.9 µM	> 100 µM	> 100 µM	4.08 µM	> 100 µM	> 100 µM	> 100 µM	> 100 µM	> 100 µM	> 100 µM	> 100 µM	> 100 µM	> 100 µM	> 100 µM	> 100 µM
CCCCCCCCCCCCCCCCCCNc1nc(=O)n(C2CC(O)C(COP(=O)(O)OCC3OC(n4ccc(N)nc4=O)C(O)C3O)O2)cc1F (stereo unspecified)	> 100 µM	> 100 µM	> 100 µM	> 100 µM	> 100 µM	> 100 µM	> 100 µM	> 100 µM	> 100 µM	> 100 µM	> 100 µM	> 100 µM	> 100 µM	> 100 µM	> 100 µM	> 100 µM	> 100 µM
COC(=O)[C@H]1COC(=O)N1	> 100 µM	> 100 µM	> 100 µM	> 100 µM	> 100 µM	> 100 µM	> 100 µM	> 100 µM	> 100 µM	> 100 µM	> 100 µM	> 100 µM	> 100 µM	> 100 µM	> 100 µM	> 100 µM	> 100 µM
O=c1[nH]c(=O)n(C2CC(O)C(CO)O2)c2nc3ccc4cc5ccccc5cc4c3nc12 (stereo unspecified)	> 100 µM	> 100 µM	> 100 µM	> 100 µM	> 100 µM	> 100 µM	> 100 µM	> 100 µM		> 100 µM	> 100 µM	> 100 µM	> 100 µM	> 100 µM	> 100 µM	> 100 µM	> 100 µM
COc1cc2c(cc1OC)CC1c3cc(OC)c(OC)cc3CCN1CC2 (stereo unspecified)	> 100 µM	> 100 µM	> 100 µM	> 100 µM	> 100 µM	> 100 µM	> 100 µM	> 100 µM	> 100 µM	> 100 µM	> 100 µM	> 100 µM	> 100 µM	> 100 µM	> 100 µM	> 100 µM	> 100 µM
O=c1[nH]nc(-c2ccccc2)n1/N=C/c1ccccc1Cl	60.2 µM	57.9 µM	67.4 µM	> 100 µM	> 100 µM	> 100 µM	> 100 µM	> 100 µM	32.2 µM	> 100 µM	> 100 µM	> 100 µM	> 100 µM	> 100 µM	> 100 µM	> 100 µM	46.3 µM
COC(=O)C1=C(C)NC(C)=C(C(=O)OC)C1c1ccc(N=O)cc1	32.6 µM	26.9 µM	23.5 µM	23 µM	8.95 µM	24.5 µM	> 61.3 µM	> 100 µM	41.9 µM	27.9 µM	26.7 µM	35.8 µM	26.1 µM	19.2 µM	29.2 µM	> 100 µM	28.2 µM
CCN(CC)C1C(=O)NC1C#Cc1ccccc1 (stereo unspecified)	> 100 µM	> 100 µM	> 100 µM	> 100 µM	92.1 µM	> 100 µM	> 100 µM	> 100 µM	> 100 µM	> 100 µM	> 100 µM	> 100 µM	> 100 µM	> 100 µM	> 100 µM	> 100 µM	> 100 µM
CC(C)(C)OC(=O)NCCNCCNc1ccccc1	> 100 µM	> 100 µM	> 100 µM	> 100 µM	> 100 µM	> 100 µM	> 100 µM	> 100 µM	> 100 µM	> 100 µM	> 100 µM	> 100 µM	> 100 µM	> 100 µM	> 100 µM	> 100 µM	> 100 µM
CSc1nc(C)c(CCOC(C)=O)c(Cl)n1	> 100 µM	> 100 µM	> 100 µM	> 100 µM	> 100 µM	> 100 µM	> 100 µM	> 100 µM	> 100 µM	> 100 µM	> 100 µM	> 100 µM	> 100 µM	> 100 µM	> 100 µM	> 100 µM	
CCNC12CCC(C1)C(C)(C)C2=O (stereo unspecified)	> 100 µM	> 100 µM	> 100 µM	> 100 µM	> 100 µM	> 100 µM	> 100 µM	> 100 µM	> 100 µM	> 100 µM	> 100 µM	> 100 µM	> 100 µM	> 100 µM	> 100 µM	> 100 µM	> 100 µM
